{
  "source": "patent US6238689A",
  "about": "“Intestinal absorption of nicotine to treat nicotine responsive conditions” (Mayo Foundation for Medical Education and Research, priority 1998, dated 2001)",
  "key": {"[1]": {"conditions": "statement without test; cited from earlier work"}, "[2]": {"assay": "Pharmacokinetics of nicotine tartrate after IV and Eudragit coated delayed release oral (DRO) capsules (Example 5)", "procedure": "Delayed-release Eudragit™ coated oral nicotine capsules were prepared by Tillotts Pharma AG, Ziefen, Switzerland and consisted of either 3 mg or 6 mg of nicotine (8.887 mg or 17.774 mg nicotine tartrate base salt, respectively). The nicotine salt was suspended in an excipient (a saturated polyglycolized glyceride; Gelucire™ 44/14, (supplied by Gattefosse France) (190 mg or 380 mg respectively) and filled into hard gelatine capsules (size 1). The capsules were then coated with Eudragit™ L30D. Eudragit™ L30D is a polymer which dissolves at about pH 6.8 in the ileum. The size of the capsule and the thickness of the Eudragit coating are similar to those used to deliver Asacol™ (Eudragit coated mesalamine) to the terminal ileum (Schroeder et al., NEJM, 317:1625-9 (1987)).\nDelayed-release Eudragit coated oral nicotine/carbomer capsules were prepared by Tillotts Pharma. Nicotine/carbomer powder (1:50--nicotine carbomer) was coated with Eudragit™ L, S or LS. The coated powder was then formed into spherules, coated with Eudragit S and filled into hard gelatine capsules (size 1). The capsules were then coated with Eudragit™ L30D. In one example, the capsules contained 150 mg nicotine-carbomer complex, equivalent to 3 mg nicotine base.\nThe aim of this study was to determine nicotine tartrate pharmacokinetics after administration by: IV, and 3 mg and 6 mg Eudragit S coated delay release oral (DRO) capsules.\nEach subject had 2 studies [DRO and 15 μg/kg (mean 1 mg) IV] separated by >1 week with the order (IV vs DRO first) randomly assigned. After nicotine administration, blood was obtained for 12 hours and serum nicotine was determined by gas chromatography/mass spectrometry. Plasma cotinine concentrations were determined HPLC in 2 subjects (both 6 mg) over 72 hours. Pharmacokinetic parameters determined were: maximum concentration (Cmax); time to Cmax (Tmax); area under the curve (AUC); bioavailability (F); volume of distribution (Vdss); clearance (CL); and half-life (T1/2).\nDelayed-release Eudragit coated oral nicotine capsules were prepared in accordance with Example 3, Part A.\nDelayed-release Eudragit coated oral nicotine/Carbopol capsules were prepared in accordance with Example 3, Part B."}, "[3]": {"system": "cutaneous inflammatory response", "conditions": "transdermal delivery system; cited from earlier work"}, "[4]": {"conditions": "human, in vivo; cited from earlier work"}, "[5]": {"assay": "Side effects after nicotine/Carbopol enema in healthy volunteers and patients with active UC (Example 6)", "format": "in vivo, human", "procedure": "Eight normal healthy volunteers and 8 patients with active UC were enrolled in this open label, single dose study.\nThe nicotine content of sample enemas was first confirmed by diluting a small volume of the contents in dilute hydrochloric acid to produce an approximate concentration of 30 ng/ml, which could then be accurately measured by our assay.\nSide-effect experienced by the subjects were recorded as absent, mild, moderate or severe. Subjects were asked to report the time, nature and severity of any symptoms, at the commencement and each hour through the study, and were questioned particularly about nausea, vomiting, light-headedness, tremor, palpitations and headache. Blood pressure and pulse rate were also recorded each hour and when any symptoms occurred."}, "[6]": {"assay": "Pharmacokinetics of nicotine after IV, oral and enema administration (Example 4)", "procedure": "Intravenous nicotine was prepared using a nicotine base, supplied as the tartrate salt (Fisher Scientific/Eastman Kodak Company, Rochester, N.Y.). Solutions for injection were made up by combining 1.5 mg nicotine base (4.44 mg tartrate salt) in 100 ml of 0.9% sterile normal saline to form a 15 mcg/mL solution. The intravenous solution was filtered through a 0.22 micron filter into a sterile container and under sterile conditions. The solution was then cultured for organisms, assayed for endotoxin, and chemically analyzed prior to infusion to assure stable nicotine concentration. These samples were then be stored in sealed vials until the time of administration.\nThe oral preparation was formed by dissolving 45 micrograms nicotine base/kg body weight (133.3 micrograms tartrate salt/kg body weight) in 30 ml purified water.\nThe sorbitol was added to make the vehicle isoosmolar and the carboxymethylcellulose was used as a suspending agent.\nThirty paid human volunteers were admitted to the pharmacokinetic study after giving informed consent to a protocol approved by the institutional review board at the Mayo Clinic, Rochester, Minn. The subjects ranged in age from 21-56 and their body weights ranged from 45 to 153 Kg. All subjects were non-smokers and were healthy based on their histories, and physical examination. Subjects agreed to practice birth control during the study period. Complete blood count, chemistry group, urinalysis and pregnancy test (women only) were obtained. Subjects were excluded if they had cardiovascular disease, peripheral vascular disease, hypertension, were nursing mothers, had laboratory evidence of pregnancy, or had hepatic or renal dysfunction.\nEach subject underwent 2 investigations (IV and non-IV) of 8 hours duration at least 1 week apart. During the IV visit, subjects were given a 15-30 minute infusion of the IV nicotine solution (15 mcg/Kg dose). […] On each study day, venous blood samples were drawn from an IV catheter into standard chemistry vacutainer tubes. Samples were obtained before nicotine administration and at the following time points (time=0 was defined as the point at which the nicotine infusion was started or the non-IV dose was administered): 5, 10, 15, 30, 60, 90 minutes, and 2, 3, 4, 5, 6, and 8 hours. Whole blood samples were centrifuged and plasma samples were then stored at -20 degrees Celsius until analysis. Plasma concentrations of nicotine were determined by gas chromatography/mass spectrometry as described by Baskin et al. (Clin. Chem., 31:76-80 (1991)).\nFor this study, the maximum plasma nicotine concentration (Cmax) and the time to reach Cmax (Tmax) were defined as the highest measured plasma concentrations and the time of the sample, respectively. The following pharmacokinetics parameters were calculated using standard equations (Gibaldi (ed.) Pharmcokinetics 2nd ed, Marcel Dekker Inc., New York 409-17 (1982)): area under the plasma nicotine concentration versus time curve (AUC), bioavailability (F), blood elimination half-life (T1/2), volume of distribution (Vdss), and blood nicotine clearance (Clb).\nThe computed bioavailability for each subject was used in an analysis of covariance to compare the five groups. Within subject (IV versus non-IV) variation was evaluated for each group of 6 subjects using a paired-T test. In addition, data was reviewed for gender variation."}, "[7]": {"assay": "Side effects by questionnaire versus plasma nicotine concentration (Example 4)", "format": "in vivo, human (healthy non-smoking volunteers)", "procedure": "However, the threshold above which symptoms appeared varied from individual to individual with the nicotine concentration at which side effects first appeared ranging from 2.4 ng/mL to 9.9 ng/mL (although some subjects had nicotine concentrations of >11 ng/mL without symptoms)."}, "[8]": {"conditions": "cited from earlier work"}, "[9]": {"conditions": "oral, 45 micrograms nicotine base/kg, previous study (Benowitz et al.); cited from earlier work"}, "[10]": {"assay": "Side effects of nicotine delivered to the intestine versus gum and patch", "format": "in vivo, human", "conditions": "absorbed through the intestinal mucosa; inventors' belief"}},
  "note": "Like-named read-outs stand apart in the source and are kept apart here.",
  "data": [
    {"smiles": "CN1C(=O)CC[C@H]1c1cccnc1", "note": "[cotinine]", "values": [
      {"measurement": "activity relative to nicotine", "setting": "[1]", "result": "less active metabolite than nicotine"}
    ]},
    {"smiles": "CN1CCCC1c1cccnc1", "note": "(stereo not shown) [nicotine]", "values": [
      {"measurement": "first pass metabolism", "setting": "[2]; 6 mg DRO versus IV", "result": "significant first pass metabolism"},
      {"measurement": "systemic bioavailability", "setting": "[2]; DRO route to the ileocolon", "result": "reduced systemic bioavailability of nicotine"},
      {"measurement": "F", "setting": "[2]; IV 15 μg/kg (mean 1 mg), n=20", "result": "100 ± 0", "unit": "%"},
      {"measurement": "Tmax", "setting": "[2]; human, in vivo, iv, […]", "result": "24 ± 6", "unit": "min"},
      {"measurement": "Vd", "setting": "[2]; human, in vivo, iv, […]", "result": "2 ± 1", "unit": "L/kg"},
      {"measurement": "clearance", "setting": "[2]; human, in vivo, iv, […]", "result": 16.7, "unit": "mL/min/kg"},
      {"measurement": "half-life", "setting": "[2]; human, in vivo, iv, […]", "result": "60 ± 60", "unit": "min"},
      {"measurement": "cutaneous inflammatory response to sodium lauryl sulphate and UVB radiation, and reactive hyperaemia", "setting": "[3]", "result": "suppress the cutaneous inflammatory response to sodium lauryl sulphate (irritant) and UVB radiation, as well as reactive hyperaemia following arterial occlusion"},
      {"measurement": "response of Alzheimer's and Parkinson's disease patients", "setting": "[4]", "result": "beneficial response"},
      {"measurement": "rise in serum nicotine", "setting": "[5]; administration to the colon", "result": "only modest rises in serum nicotine occur"},
      {"measurement": "tolerability", "setting": "[5]; human, in vivo", "result": "side effects were few and the preparation well tolerated"},
      {"measurement": "nicotine's stability", "setting": "[5]; phosphate buffer added, final pH of 5.5", "result": "increasing nicotine's stability"},
      {"measurement": "Tmax", "setting": "[6]; human, plasma, iv, […]", "result": "18 ± 6", "unit": "min"},
      {"measurement": "AUC", "setting": "[6]; human, plasma, iv, […], IV 15 mcg/kg over 15-30 min, n = 32, mean ± SD", "result": "12 ± 5", "unit": "ng·h/mL"},
      {"measurement": "Tmax", "setting": "[6]; human, plasma, po, […]", "result": "66 ± 6", "unit": "min"},
      {"measurement": "bioavailability", "setting": "[6]; human, plasma, po, […]", "result": 19, "unit": "%"},
      {"measurement": "AUC", "setting": "[6]; human, plasma, po, […], 45 mcg nicotine base/kg, n=6, analyzed on natural log scale", "result": "9 ± 5", "unit": "ng·h/mL"},
      {"measurement": "subjects with no detectable plasma levels", "setting": "[6]; oral, 45 mcg/kg", "result": 2, "unit": "subjects"},
      {"measurement": "time at which nicotine was first detected in plasma", "setting": "[6]; oral, 45 mcg/kg, when detectable", "result": 30, "unit": "min"},
      {"measurement": "colonic absorption, dependence on patient position", "setting": "[6]; pilot study, two additional subjects, enema", "result": "higher plasma levels detected when subjects were allowed into a sitting position immediately after administration"},
      {"measurement": "nicotine concentration without symptoms (some subjects)", "setting": "[7]; plasma", "result": "> 11", "unit": "ng/mL"},
      {"measurement": "side effects, correlation with plasma nicotine concentrations", "setting": "[7]; questionnaire every 30 minutes", "result": "closely correlated with plasma nicotine concentrations"},
      {"measurement": "side effects observed", "setting": "[7]; variable frequency", "result": "nausea lightheadedness, and diaphoresis"},
      {"measurement": "effect on cardiovascular system", "setting": "[8]; in vivo", "result": "increased heart rate and blood pressure resulting in greater myocardial work and oxygen requirement and coronary vasocontriction"},
      {"measurement": "effect on platelets and blood lipids", "setting": "[8]; purported", "result": "activate platelets and to adversely affect blood lipids"},
      {"measurement": "tolerability", "setting": "[9]", "result": "well-tolerated"},
      {"measurement": "bioavailability, cause", "setting": "[10]", "result": "low bioavailability of nicotine absorbed through the intestinal mucosa appears to be largely due to its conversion to the major metabolite cotinine on first pass metabolism in the liver"}
    ]}
  ]
}
